The values that follow come from patent US8729113B2 (Hoffmann-La Roche Inc., priority 2008, dated 2014).

By Ki is commonly meant a dissociation constant, usually derived from enzyme kinetics or from competition with a known ligand. Read a high Ki as weaker binding.

TAAR1, sequence (Q923Y8 whole entry): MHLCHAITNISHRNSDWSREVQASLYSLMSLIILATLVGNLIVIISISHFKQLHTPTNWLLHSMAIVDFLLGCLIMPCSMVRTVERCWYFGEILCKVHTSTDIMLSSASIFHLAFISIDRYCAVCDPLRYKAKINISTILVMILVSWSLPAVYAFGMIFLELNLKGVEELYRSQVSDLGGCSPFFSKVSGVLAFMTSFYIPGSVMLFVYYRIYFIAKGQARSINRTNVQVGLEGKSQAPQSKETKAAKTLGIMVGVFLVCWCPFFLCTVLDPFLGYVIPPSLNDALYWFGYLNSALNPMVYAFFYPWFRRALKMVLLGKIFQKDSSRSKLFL

The target of the experiment is TAAR1 (Mus musculus (Mouse), UniProt Q923Y8). Kind of experiment: Radioligand binding assay on TAAR1 (membranes of stably transfected HEK293 cells). To be noted: competition with [3H]-rac-2-(1,2,3,4-tetrahydro-1-naphthyl)-2-imidazoline, 4° C., 30 min. The method, then:
For the construction of expression plasmids the coding sequences of human, rat and mouse TAAR 1 were amplified from genomic DNA essentially as described by Lindemann et al.. The Expand High Fidelity PCR System (Roche Diagnostics) was used with 1.5 mM Mg^2+ and purified PCR products were cloned into pCR2.1—TOPO cloning vector (Invitrogen) following the instructions of the manufacturer. PCR products were subcloned into the pIRESneo2 vector (BD Clontech, Palo Alto, Calif.), and expression vectors were sequence verified before introduction in cell lines.
HEK293 cells (ATCC # CRL-1573) were cultured essentially as described Lindemann et al. (2005). For the generation of stably transfected cell lines HEK293 cells were transfected with the pIRESneo2 expression plasmids containing the TAAR coding sequences (described above) with Lipofectamine 2000 (Invitrogen) according to the instructions of the manufacturer, and 24 hrs post transfection the culture medium was supplemented with 1 mg/ml G418 (Sigma, Buchs, Switzerland). After a culture period of about 10 d clones were isolated, expanded and tested for responsiveness to trace amines (all compounds purchased from Sigma) with the cAMP Biotrak Enzyme immunoassay (EIA) System (Amersham) following the non-acetylation EIA procedure provided by the manufacturer. […] Membrane Preparation and Radioligand Binding
Cells at confluence were rinsed with ice-cold phosphate buffered saline without Ca^2+ and Mg^2+ containing 10 mM EDTA and pelleted by centrifugation at 1000 rpm for 5 min at 4° C. The pellet was then washed twice with ice-cold phosphate buffered saline and cell pellet was frozen immediately by immersion in liquid nitrogen and stored until use at −80° C. Cell pellet was then suspended in 20 ml HEPES-NaOH (20 mM), pH 7.4 containing 10 mM EDTA, and homogenized with a Polytron (PT 3000, Kinematica) at 10,000 rpm for 10 s. The homogenate was centrifuged at 48,000×g for 30 min at 4° C. and the pellet resuspended in 20 ml HEPES-NaOH (20 mM), pH 7.4 containing 0.1 mM EDTA (buffer A), and homogenized with a Polytron at 10,000 rpm for 10 s. The homogenate was then centrifuged at 48,000×g for 30 min at 4° C. and the pellet resuspended in 20 ml buffer A, and homogenized with a Polytron at 10,000 rpm for 10 s. Protein concentration was determined by the method of Pierce (Rockford, Ill.). The homogenate was then centrifuged at 48,000×g for 10 min at 4° C., resuspended in HEPES-NaOH (20 mM), pH 7.0 including MgCl2 (10 mM) and […] homogenized with a Polytron at 10,000 rpm for 10 s.
Binding assay was performed at 4° C. in a final volume of 1 ml, and with an incubation time of 30 min. The radioligand [^3H]-rac-2-(1,2,3,4-tetrahydro-1-naphthyl)-2-imidazoline was used at a concentration equal to the calculated Kd value of 60 nM to give a bound at around 0.1% of the total added radioligand concentration, and a specific binding which represented approximately 70-80% of the total binding. Non-specific binding was defined as the amount of [^3H]-rac-2-(1,2,3,4-tetrahydro-1-naphthyl)-2-imidazoline bound in the presence of the appropriate unlabelled ligand (10 μM). Competing ligands were tested in a wide range of concentrations […]. […] Each experiment was performed in duplicate. All incubations were terminated by rapid filtration through UniFilter-96 plates (Packard Instrument Company) and glass filter GF/C, pre-soaked for at least 2 h in polyethylenimine 0.3%, and using a Filtermate 96 Cell Harvester (Packard Instrument Company). The tubes and filters were then washed 3 times with 1 ml aliquots of cold buffer B. Filters were not dried and soaked in Ultima gold (45 μl/well, Packard Instrument Company) and bound radioactivity was counted by a TopCount Microplate Scintillation Counter (Packard Instrument Company).
Compound `NC1=N[C@@H](CCC(F)(F)c2ccc(F)cc2)CO1` [Example 162, (S)-4-[3,3-Difluoro-3-(4-fluoro-phenyl)-propyl]-4,5-dihydro-oxazol-2-ylamine] registered a Ki of 0.0022 µM. The same measure for `C[C@@H](C[C@H]1COC(N)=N1)Oc1cccc(Cl)c1` [Example 68, (S)-4-[(S)-2-(3-Chloro-phenoxy)-propyl]-4,5-dihydro-oxazol-2-ylamine]: 0.0012 µM; for `C[C@H](C[C@H]1COC(N)=N1)Oc1ccc(Cl)c(Cl)c1` [Example 96, (S)-4-[(R)-2-(3,4-Dichloro-phenoxy)-propyl]-4,5-dihydro-oxazol-2-ylamine]: 0.0062 µM; for `NC1=N[C@@H](CCC2(c3ccc(F)c(F)c3)CC2)CO1` [Example 108, (S)-4-{2-[1-(3,4-Difluoro-phenyl)-cyclopropyl]-ethyl}-4,5-dihydro-oxazol-2-ylamine]: 0.0014 µM. The same measure for `CC(CCc1ccccc1)[C@H]1COC(N)=N1` (stereo partly drawn) [Example 90, (4S)-4-(1-Methyl-3-phenyl-propyl)-4,5-dihydro-oxazol-2-ylamine]: 0.008 µM. On to `CCC(CC[C@H]1COC(N)=N1)c1cc(F)cc(F)c1` (stereo partly drawn) [Example 124, (4S)-4-[3-(3,5-Difluoro-phenyl)-pentyl]-4,5-dihydro-oxazol-2-ylamine], for which the Ki was 0.001 µM. This Ki lies about 8-fold lower than the previous one.

In turn, `CC[C@@H](C[C@H]1COC(N)=N1)Oc1cccc(Cl)c1` [Example 112] displayed a Ki of 0.0012 µM.

In turn, `NC1=N[C@@H](CCOc2ccc(Cl)c(Cl)c2)CO1` [Example 57, (S)-4-[2-(3,4-Dichloro-phenoxy)-ethyl]-4,5-dihydro-oxazol-2-ylamine] showed an inhibition constant Ki of 0.0003 µM.

Turning to `CC[C@@H](C[C@H]1COC(N)=N1)Oc1cccc(O)c1` [Example 141, 3-[(S)-1-((8)-2-Amino-4,5-dihydro-oxazol-4-ylmethyl)-propoxy]-phenol], the affinity, expressed as Ki, was 0.0037 µM. For `NC1=N[C@@H](CCOc2ccc(F)cc2Cl)CO1` [Example 10, (S)-4-[2-(2-Chloro-4-fluoro-phenoxy)-ethyl]-4,5-dihydro-oxazol-2-ylamine], the Ki was determined as 0.0021 µM. The same measure for `NC1=N[C@@H](CCOc2ccc(Cl)cc2)CO1` [Example 3, (S)-4-[2-(4-Chloro-phenoxy)-ethyl]-4,5-dihydro-oxazol-2-ylamine]: 0.0005 µM; for `CCC(CC[C@H]1COC(N)=N1)c1ccc(Cl)cc1` (stereo partly drawn) [Example 27, (4S)-4-[3-(4-Chloro-phenyl)-pentyl]-4,5-dihydro-oxazol-2-ylamine]: 0.0017 µM.

Consider `C[Si](C)(CC[C@H]1COC(N)=N1)c1cccc(Cl)c1` [Example 61, (S)-4-{2-[(3-Chloro-phenyl)-dimethyl-silanyl]-ethyl}-4,5-dihydro-oxazol-2-ylamine], for which the affinity, expressed as Ki, was 0.0055 µM. The same measure for `NC1=N[C@@H](CC2CC2c2ccccc2)CO1` (stereo partly drawn) [Example 23, (4S)-4-(2-Phenyl-cyclopropylmethyl)-4,5-dihydro-oxazol-2-ylamine]: 0.0031 µM; for `NC1=N[C@@H](CCOc2cccc(C(=O)OCc3ccccc3)c2)CO1` [Example 136, 3-[2-((S)-2-Amino-4,5-dihydro-oxazol-4-yl)-ethoxy]-benzoic acid benzyl ester]: 0.0004 µM. Next, `NC1=N[C@@H](CCOc2ccc(Oc3ccccc3)cc2)CO1` [Example 36, (S)-4-[2-(4-Phenoxy-phenoxy)-ethyl]-4,5-dihydro-oxazol-2-ylamine]: 0.0039 µM; `C[C@H](CC[C@H]1COC(N)=N1)c1ccc(F)cc1` [Example 116, (S)-4-[(R)-3-(4-Fluoro-phenyl)-butyl]-4,5-dihydro-oxazol-2-ylamine]: 0.0011 µM; `CC[C@@H](C[C@H]1COC(N)=N1)Oc1cc(F)c(F)cc1F` [Example 152, (S)-4-[(S)-2-(2,4,5-Trifluoro-phenoxy)-butyl]-4,5-dihydro-oxazol-2-ylamine]: 0.0029 µM. Next, `CC[C@@H](C[C@H]1COC(N)=N1)Oc1ccc(F)cc1` [Example 117, (S)-4-[(S)-2-(4-Fluoro-phenoxy)-butyl]-4,5-dihydro-oxazol-2-ylamine]: 0.0032 µM. As to `CCC(CC[C@H]1COC(N)=N1)c1ccccc1` (stereo partly drawn) [Example 14, (4S)-4-(3-Phenyl-pentyl)-4,5-dihydro-oxazol-2-ylamine], the affinity, expressed as Ki, was 0.0056 µM. In the case of `NC1=N[C@@H](CCOc2ccccc2Cl)CO1` [Example 6, (S)-4-[2-(2-Chloro-phenoxy)-ethyl]-4,5-dihydro-oxazol-2-ylamine], the Ki is 0.0041 µM. This Ki and that of the compound before are within 1.5-fold of each other. In turn, `CC[C@H](OC[C@H]1COC(N)=N1)c1ccccc1` [Example 156, (S)-4-((S)-1-Phenyl-propoxymethyl)-4,5-dihydro-oxazol-2-ylamine] registered a Ki of 0.0073 µM. The same measure for `NC1=N[C@@H](CCOc2ccc(Cl)cc2F)CO1` [Example 58, (S)-4-[2-(4-Chloro-2-fluoro-phenoxy)-ethyl]-4,5-dihydro-oxazol-2-ylamine]: 0.0041 µM. In turn, `CCC(CC[C@H]1COC(N)=N1)c1cccc(C(F)(F)F)c1` (stereo partly drawn) [Example 28, (4S)-4-[3-(3-Trifluoromethyl-phenyl)-pentyl]-4,5-dihydro-oxazol-2-ylamine] had a Ki of 0.0013 µM. Turning to `NC1=N[C@@H](CCSc2ccc(F)cc2)CO1` [Example 150, (S)-4-[2-(4-Fluoro-phenylsulfanyl)-ethyl]-4,5-dihydro-oxazol-2-ylamine], the affinity, expressed as Ki, was 0.0007 µM. Compared with the last compound, the Ki is about 1.9-fold lower. Turning to `C[C@@H](C[C@H]1COC(N)=N1)Oc1ccc(F)c(Cl)c1` [Example 72, (S)-4-[(S)-2-(3-Chloro-4-fluoro-phenoxy)-propyl]-4,5-dihydro-oxazol-2-ylamine], the Ki was 0.0024 µM. Next, `CC[C@@H](C[C@H]1COC(N)=N1)Oc1ccc(F)cc1F` [Example 114, (S)-4-[(S)-2-(2,4-Difluoro-phenoxy)-butyl]-4,5-dihydro-oxazol-2-ylamine]: 0.0019 µM. Consider `CC[C@@H](C[C@H]1COC(N)=N1)Oc1ccc(Cl)c(F)c1` [Example 113, (S)-4-[(S)-2-(4-Chloro-3-fluoro-phenoxy)-butyl]-4,5-dihydro-oxazol-2-ylamine], for which the Ki turned out to be 0.0037 µM.

Take `NC1=N[C@@H](CCOc2ccc(Br)cc2)CO1` [Example 55, (S)-4-[2-(4-Bromo-phenoxy)-ethyl]-4,5-dihydro-oxazol-2-ylamine]: the Ki turned out to be 0.0025 µM.

Consider `CC[C@@H](C[C@H]1COC(N)=N1)Oc1ccc(F)c(Cl)c1` [Example 120, (S)-4-[(S)-2-(3-Chloro-4-fluoro-phenoxy)-butyl]-4,5-dihydro-oxazol-2-ylamine], for which the Ki was found to be 0.0014 µM.

As for `NC1=N[C@@H](CCOc2ccc(F)cc2)CO1` [Example 2, (S)-4-[2-(4-Fluoro-phenoxy)-ethyl]-4,5-dihydro-oxazol-2-ylamine], the affinity, expressed as Ki, was 0.0028 µM. This Ki lies about 2-fold higher than the previous one. Next, `NC1=N[C@@H](CCC2(c3ccc(F)cc3)CC2)CO1` [Example 60, (S)-4-{2-[1-(4-Fluoro-phenyl)-cyclopropyl]-ethyl}-4,5-dihydro-oxazol-2-ylamine]: 0.0025 µM. As for `CC[C@@H](C[C@H]1COC(N)=N1)Oc1ccc(Cl)cc1F` [Example 123, (S)-4-[(S)-2-(4-Chloro-2-fluoro-phenoxy)-butyl]-4,5-dihydro-oxazol-2-ylamine], the affinity corresponds to a Ki of 0.0065 µM. The compound `CC(OC[C@H]1COC(N)=N1)c1ccccc1` (stereo partly drawn) [Example 24, (4S)-4-(1-Phenyl-ethoxymethyl)-4,5-dihydro-oxazol-2-ylamine] had a Ki of 0.0084 µM.
